Values of other authors in patent US11707272B2, “Packaged antimicrobial medical device having improved shelf life and method of preparing same” (ETHICON, LLC, priority 2012, dated 2023).

System: S. aureus
Conditions: measured in a suitable growth medium; as described by Bhargava, H. et al, American Journal of Infection Control, June 1996

## Oc1cc(Cl)ccc1Oc1ccc(Cl)cc1Cl [2,4,4′-trichloro-2′-hydroxydiphenyl ether]
  minimum inhibitory concentration (MIC) against S. aureus: 0.01 ppm
